Source: the OPERA property sets (Mansouri et al. 2018)

For `C=CCCCCCCCCCCCCCCC`, the boiling point was 300 °C, the log10 vapour pressure (mmHg) was -3.34 and the melting point was 11.5 °C.
For `c1ccc(CN(CC2=NCCN2)c2ccccc2)cc1`, the melting point was 120 °C.
For `C=CC(=C)F`, the boiling point was 12 °C.
Work on `O=C1c2ccc(O)c(O)c2C(=O)c2ccc(O)c(O)c21` yielded a melting point of 340 °C.
With `Cc1ccccc1C(=O)c1ccccc1` the boiling point was 308 °C.
`CC(=O)Oc1c(C)cc(OCC(O)CNC(C)C)c(C)c1C` (stereo not drawn) gave a melting point of 106 °C.
`CCN(C)C(=O)COC(=O)c1ccccc1` gave a melting point of 20 °C.
In the case of `Cc1ccc(N)cc1F`, the melting point was 31 °C.
`COCCOCCOC` gave a boiling point of 162 °C, a log10 vapour pressure (mmHg) of 0.471 and a melting point of -68 °C. For the same molecule, the ready biodegradability was “not readily biodegradable”.
For `CC1(C)C(C=C(Cl)Cl)C1C(=O)OCc1cccc(Oc2ccccc2)c1` (stereo not drawn), the log10 Koc (L/kg) was 4.8, the log10 vapour pressure (mmHg) was -7.66 and the melting point was 34 °C.
With `CCCCCCCCCCC=CCCCCCCCC(=O)O` the melting point was 23 °C.
Work on `CC(COc1ccc(Oc2ccccc2)cc1)Oc1ccccn1` (stereo not drawn) yielded a log10 vapour pressure (mmHg) of -5.66 and a melting point of 46 °C.
In the case of `CCC1CC1`, the boiling point was 35.9 °C and the melting point was -149 °C.
In the case of `CCC[C@H]1CCCCN1`, the boiling point was 166 °C.
`NS(=O)(=O)c1cc2c(cc1Cl)NC(C1CC3C=CC1C3)NS2(=O)=O` (stereo not drawn) showed a melting point of 234 °C.
Molecule `C1CCOC1` has a boiling point of 65 °C, a log10 Henry constant (atm·m³/mol) of -4.15 and a log10 Koa of 2.86. For the same molecule, the log10 vapour pressure (mmHg) was 2.21, the melting point was -108 °C and the ready biodegradability was “readily biodegradable”.
`Clc1ccc2c(c1)C(c1ccccc1)=NCc1nncn1-2` showed a melting point of 228 °C.
Work on `CCC(C(=O)O)C1(O)CCC(c2ccccc2)CC1` (stereo not drawn) yielded a melting point of 157 °C.
With `CC(O)C(C)CO` (stereo not drawn) the boiling point was 200 °C.
Molecule `C[Si](C)(C)N=C=N[Si](C)(C)C` has a boiling point of 164 °C and a melting point of -23 °C.
Molecule `CCc1nn(C)c(C(=O)NCc2ccc(C(C)(C)C)cc2)c1Cl` has a melting point of 61.5 °C.
Molecule `C[C@]12C=CC(=O)C=C1CC[C@@H]1[C@@H]2CC[C@@]2(C)[C@H]1CC[C@]2(C)O` has a melting point of 164 °C.
`CC1=CCC(=C(C)C)CC1` gave a boiling point of 186 °C, a log10 Henry constant (atm·m³/mol) of -1.58 and a log10 vapour pressure (mmHg) of -0.129. The ready biodegradability was “readily biodegradable”.
Work on `COc1ccc(OC)c([N+](=O)[O-])c1` yielded a melting point of 72.5 °C.
`CCOC(=O)c1cccc([N+](=O)[O-])c1` showed a boiling point of 297 °C and a melting point of 47 °C.
Work on `C=Cc1ccccc1OC` yielded a boiling point of 197 °C and a melting point of 29 °C.
In the case of `CCCCC1C(=O)NN(c2ccccc2)C1=O` (stereo not drawn), the melting point was 102 °C.
For `C[C@]12Cc3nonc3C[C@@H]1CC[C@@H]1[C@@H]2CC[C@@]2(C)[C@H]1CC[C@]2(C)O`, the melting point was 152 °C.
With `CC(C)C(=O)OCCc1ccccc1` the boiling point was 250 °C.
Molecule `CCS(=O)(=O)c1nc2ccccn2c1S(=O)(=O)NC(=O)Nc1nc(OC)cc(OC)n1` has a melting point of 201 °C.
In the case of `NC(=O)N1CCCCC1`, the melting point was 105 °C.
For `CCCCCCCC/C=C/CCCCCCCC(=O)O`, the melting point was 29.2 °C.
`c1ccc(CNCCNCc2ccccc2)cc1` showed a melting point of 26 °C.
With `CC(C)OC(=O)C1(S(=O)(=O)c2ccc(Cl)cc2)CC1` the melting point was 89.8 °C.
In the case of `Cc1ccc2c(ccc3cc4ccccc4cc32)c1`, the melting point was 156 °C.
With `CCC(Cl)C(C)Cl` (stereo not drawn) the boiling point was 139 °C and the melting point was -77.3 °C.
For `CCOCOc1ccc(C(=O)Nc2cccc(Cl)c2Cl)cc1`, the melting point was 92.5 °C.
`CC(C)c1ccccc1C(C)C` gave a boiling point of 204 °C, a log10 vapour pressure (mmHg) of -0.441 and a melting point of -57 °C. The ready biodegradability was “not readily biodegradable”.
For `OCC=Cc1ccccc1`, the log10 vapour pressure (mmHg) was -1.62, the melting point was 33 °C and the ready biodegradability was “readily biodegradable”.
Molecule `Cc1ccccc1CC(C)C` has a boiling point of 196 °C and a melting point of -73.3 °C.
In the case of `CC(=O)c1cc(C)ccc1O`, the boiling point was 210 °C and the melting point was 50 °C.
For `c1ccc2c(c1)c1cccc3ccc4cccc2c4c31`, the log10 biodegradation half-life (days) was 2.56, the log10 vapour pressure (mmHg) was -8.24 and the melting point was 178 °C.
Work on `CC(=O)Oc1cc(C(C)C)ccc1C` yielded a boiling point of 246 °C.
In the case of `C[Si](C)(C)O[Si](C)(C)O[Si](C)(C)C`, the boiling point was 153 °C, the log10 Henry constant (atm·m³/mol) was 1.49 and the log10 vapour pressure (mmHg) was 0.524. It also gave a melting point of -80 °C.
`CCCOCCN(C(=O)CCl)c1c(CC)cccc1CC` gave a log10 Henry constant (atm·m³/mol) of -8.1 and a log10 vapour pressure (mmHg) of -6.
Molecule `CCCCCCC#N` has a boiling point of 183 °C.
For `CCCCN(C)C(=O)Nc1ccc(Cl)c(Cl)c1`, the log10 Koc (L/kg) was 3.4, the melting point was 102 °C and the ready biodegradability was “not readily biodegradable”.
In the case of `C=C=CCCCC`, the boiling point was 106 °C.
Molecule `CCCCCCCCCCCCCCCCCCN` has a boiling point of 347 °C and a melting point of 52.9 °C.
For `CN(C)C(=O)Nc1cccc(F)c1`, the log10 Koc (L/kg) was 1.73.
`CC(=O)Nc1ccc(OCC(O)CNC(C)C)cc1` (stereo not drawn) showed a melting point of 135 °C.
In the case of `CCC(Oc1ccccc1)C(=O)O` (stereo not drawn), the boiling point was 258 °C and the melting point was 98 °C.
With `C1=CCCCC1` the boiling point was 82.9 °C, the log10 Henry constant (atm·m³/mol) was -1.34 and the log10 Koa was 2.83. The log10 vapour pressure (mmHg) was 1.95, the melting point was -104 °C and the ready biodegradability was “not readily biodegradable”.
Work on `CC(C)(N=C=O)c1ccc(C(C)(C)N=C=O)cc1` yielded a log10 vapour pressure (mmHg) of -3.12.
`C1CCC2OC2C1` (stereo not drawn) showed a boiling point of 132 °C.
In the case of `Nc1cccc(C(F)(F)F)c1`, the boiling point was 187 °C, the log10 Koc (L/kg) was 2.36 and the melting point was 5.5 °C.
With `Fc1cccnc1` the boiling point was 108 °C.
In the case of `C1CCNC1`, the boiling point was 86.5 °C, the log10 Henry constant (atm·m³/mol) was -5.62 and the log10 Koa was 4.07. For the same molecule, the log10 vapour pressure (mmHg) was 1.8 and the melting point was -57.8 °C.
Molecule `C[SiH]1O[SiH](C)O[SiH](C)O[SiH](C)O1` (stereo not drawn) has a boiling point of 134 °C and a melting point of -65 °C.
In the case of `COC(=O)c1cc(OC)c(OC)c(OC)c1`, the boiling point was 274 °C and the melting point was 83 °C.
Work on `C=C(C)C(=O)OCCOCCOCCOCCOC(=O)C(=C)C` yielded a boiling point of 220 °C.
With `Nc1cn[nH]c1` the melting point was 81 °C.
Molecule `CCCCCCCCCCCCCCCCCCCCCCCCCCCCCCCC` has a boiling point of 467 °C, a log10 biodegradation half-life (days) of 2.45 and a melting point of 69.7 °C. The ready biodegradability was “readily biodegradable”.
With `CON=C(Cc1cccnc1)c1ccc(Cl)cc1Cl` the log10 vapour pressure (mmHg) was -4.89.
